This is an account of results in ChEMBL document CHEMBL6103617, “Chromene Dimers from Cultures of Basidiomycete Panus similis” (J Nat Prod, 2025).

The nature of data set [1]: Cytotoxicity against African green monkey Vero cells by green fluorescent protein-based assay. Type of data set: toxicity, cell-based. Particulars: African green monkey (Chlorocebus sabaeus).
Data set [2] has as its system MCF7. Kind of data set: Cytotoxicity against human MCF7 cells by resazurin staining based analysis. Format: functional, cell-based. (Resazurin is reduced to fluorescent resorufin, in cell work by metabolically active cells.)
The test system of data set [3] is NCI-H187. The experiment in a line: Cytotoxicity against human NCI-H187 cells by resazurin staining based analysis. Type of data set: functional, cell-based.
The nature of data set [4]: Antioxidant activity assessed as DPPH radical scavenging activity incubated for 30 min by DPPH assay. Type of data set: functional.

For orientation: IC50 means the midpoint of a concentration-inhibition curve. Turning to `CC1(C)Oc2ccc(O)cc2C(O)C1O` (stereo not given), the concentration for half-maximal inhibition (IC50) in data set [1] is above 240 µM; in data set [2], above 240 µM; in data set [3], 9.1 µM; in data set [4], above 1900 µM.
Turning to `COc1ccc2c(c1)C(O)C(O)C(C)(C)O2` (stereo not given), the IC50 is 220 µM in data set [1], above 220 µM in data set [2], above 230 µM in data set [3] and above 1800 µM in data set [4].
For `CC1(C)C=Cc2cc3c(cc2O1)O[C@@H]1c2cc(O)c(O)cc2OC(C)(C)[C@@H]1O3` (racemic) the same measures were 46 µM, 66 µM, 45 µM and 370 µM.
On the same counts, the results for `COc1cc2c(cc1O)OC(C)(C)C(O)C2` (racemic) are above 220 µM, above 220 µM, 55 µM and 180 µM.
For `COc1cc2c(cc1O)OC(C)(C)[C@H]1[C@H]3[C@@H](O[C@@H]21)c1cc(OC)c(O)cc1OC3(C)C` (racemic) the same measures were above 120 µM, above 120 µM, above 120 µM and 540 µM.
Turning to `CC1(C)Oc2cc(O)c(O)cc2[C@@H]2O[C@H]3c4cc(O)c(O)cc4OC(C)(C)[C@H]3[C@@H]21` (racemic), the IC50 is above 130 µM in data set [1], above 130 µM in data set [2], 48 µM in data set [3] and 66 µM in data set [4].
As for `O=C1O[C@H]([C@@H](O)CO)C(O)=C1O` [ASCORBIC ACID], the IC50 in data set [4] is 68 µM.
On to `COc1cccc2c1C(=O)c1c(O)c3c(c(O)c1C2=O)C[C@@](O)(C(=O)CO)C[C@@H]3O[C@H]1C[C@H](N)[C@H](O)[C@H](C)O1` [DOXORUBICIN], for which the IC50 in data set [2] amounted to 12 µM; in data set [3] it was 0.084 µM.
Consider `Cc1c2ccncc2c(C)c2c1[nH]c1ccccc12` [ELLIPTECINE], for which the IC50 in data set [1] is above 5.4 µM; in data set [3] it was 7.8 µM.
The compound `CC/C(=C(\c1ccccc1)c1ccc(OCCN(C)C)cc1)c1ccccc1` [TAMOXIFEN] yielded an IC50 in data set [2] of 23 µM.
